Key:
COX-2 = molecular target: T1, COX-2 (Homo sapiens, UniProt P35354); test: colorimetric COX peroxidase inhibitor screening kit, […] nm; type: biochemical; settings: tested at 100 µM only, 2 min, RT; unreliable
T1 construct: gene PTGS2; homodimer
T1 sequence (P35354 18-604): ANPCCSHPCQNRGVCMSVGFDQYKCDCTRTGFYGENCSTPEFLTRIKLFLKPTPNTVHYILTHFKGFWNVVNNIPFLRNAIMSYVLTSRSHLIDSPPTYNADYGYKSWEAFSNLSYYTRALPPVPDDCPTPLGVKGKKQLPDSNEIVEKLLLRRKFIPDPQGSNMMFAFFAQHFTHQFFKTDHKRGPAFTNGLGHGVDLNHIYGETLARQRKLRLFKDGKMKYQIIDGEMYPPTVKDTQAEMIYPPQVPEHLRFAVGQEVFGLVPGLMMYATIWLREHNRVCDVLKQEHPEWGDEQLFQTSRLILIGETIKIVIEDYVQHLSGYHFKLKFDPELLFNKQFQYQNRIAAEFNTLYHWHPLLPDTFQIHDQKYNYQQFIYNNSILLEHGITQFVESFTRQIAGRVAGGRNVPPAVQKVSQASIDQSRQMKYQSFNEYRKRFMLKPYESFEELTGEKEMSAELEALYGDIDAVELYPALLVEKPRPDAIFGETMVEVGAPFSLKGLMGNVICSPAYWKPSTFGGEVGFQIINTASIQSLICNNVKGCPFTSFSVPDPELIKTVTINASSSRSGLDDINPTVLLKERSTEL

COX-1 = molecular target: T2, COX-1 (Ovis aries, UniProt P05979); test: as above; type: biochemical; settings: tested at 100 µM only, 2 min, RT; unreliable
T2 construct: gene PTGS1; homodimer
T2 sequence (P05979 25-600): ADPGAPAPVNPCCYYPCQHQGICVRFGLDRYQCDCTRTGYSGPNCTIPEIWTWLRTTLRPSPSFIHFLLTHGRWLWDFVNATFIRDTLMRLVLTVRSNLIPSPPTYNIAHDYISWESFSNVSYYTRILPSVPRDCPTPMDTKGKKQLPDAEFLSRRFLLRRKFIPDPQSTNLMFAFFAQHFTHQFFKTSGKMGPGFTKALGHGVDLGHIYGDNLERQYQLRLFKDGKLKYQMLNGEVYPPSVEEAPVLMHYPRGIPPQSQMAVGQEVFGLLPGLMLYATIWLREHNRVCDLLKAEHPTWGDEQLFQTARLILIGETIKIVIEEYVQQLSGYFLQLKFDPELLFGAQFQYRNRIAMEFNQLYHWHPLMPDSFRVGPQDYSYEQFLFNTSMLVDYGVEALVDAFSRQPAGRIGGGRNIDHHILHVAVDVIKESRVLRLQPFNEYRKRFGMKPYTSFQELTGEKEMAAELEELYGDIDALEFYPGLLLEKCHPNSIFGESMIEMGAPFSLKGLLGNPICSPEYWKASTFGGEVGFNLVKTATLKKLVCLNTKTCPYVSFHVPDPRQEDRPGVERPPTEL

Row | Structure (SMILES) | Cyclooxygenase Inhibition Assay IC50 [μM] / COX-2 (COX-2) | Cyclooxygenase Inhibition Assay IC50 [μM] / COX-1 (COX-1)
1 | Cc1c2c(c(C)n1-c1ccccc1)C(=O)N(CN1CCN(c3ccc(Br)cc3)CC1)C2=O [2a, 4,6-dimethyl-5-phenyl-2{[4-(p-bromophenyl)-1-piperazinyl]methyl}pyrrolo[3,4-c]pyrrole-1,3(2H,5H)-dione] | 60.85 ± 0.02 µM | 87.90 ± 0.03 µM
2 | Cc1c2c(c(C)n1-c1ccccc1Cl)C(=O)N(CN1CCN(c3ccc(Br)cc3)CC1)C2=O [2b, 4,6-dimethyl-5-(o-chlorophenyl)-2-{[4-(p-bromophenyl)-1-piperazinyl]methyl}pyrrolo[3,4-c]pyrrole-1,3(2H,5H)-dione] | 61.46 ± 0.02 µM | 94.17 ± 0.04 µM
3 | Cc1c2c(c(C)n1-c1ccccc1)C(=O)N(CN1CCN(c3ccccc3C#N)CC1)C2=O [2c, 4,6-dimethyl-5-phenyl-2{[4-(o-cyanophenyl)-1-piperazinyl]methyl}pyrrolo[3,4-c]pyrrole-1,3(2H,5H)-dione] | 61.53 ± 0.09 µM | 94.56 ± 0.02 µM
4 | Cc1c2c(c(C)n1-c1ccccc1)C(=O)N(CN1CCN(c3cccc(C(F)(F)F)c3)CC1)C2=O [2d, 4,6-dimethyl-5-phenyl-2{[4-(m-trifluoromethylphenyl)-1-piperazinyl]methyl}pyrrolo[3,4-c]pyrrole-1,3(2H,5H)-dione] | 60.24 ± 0.03 µM | 77.46 ± 0.06 µM
5 | CCCCn1c(C)c2c(c1C)C(=O)N(CN1CCN(c3ccc(C)cc3)CC1)C2=O [2e, 4,6-dimethyl-5-n-butyl-2-{[4-(p-methylphenyl)-1-piperazinyl]methyl}pyrrolo[3,4-c]pyrrole-1,3-(2H,5H)-dione] | 60.75 ± 0.02 µM | 78.73 ± 0.06 µM
6 | CCCCn1c(C)c2c(c1C)C(=O)N(CN1CCN(c3ncccn3)CC1)C2=O [2f, 4,6-dimethyl-5-n-butyl-2-{[4-(2-pyrimidinyl)piperazin-1-yl]methyl}pyrrolo[3,4-c]pyrrole-1,3(2H,5H)-dione] | 58.87 ± 0.08 µM | 80.51 ± 0.06 µM
7 | Cc1c2c(c(C)n1-c1ccccc1)C(=O)N(CN1CCN(C3CCCCC3)CC1)C2=O [2g, 4,6-dimethyl-5-phenyl-2-[(4-cyclohexyl-1-piperazinyl)methyl]pyrrolo[3,4-c]pyrrole-1,3(2H,5H)-dione] | 59.92 ± 0.05 µM | 80.25 ± 0.06 µM
8 | Cc1c2c(c(C)n1-c1ccccc1Cl)C(=O)N(CN1CCN(C3CCCCC3)CC1)C2=O [2h, 4,6-dimethyl-5-(o-chlorophenyl)-2-[(4-cyclohexyl-1-piperazinyl)methyl]pyrrolo[3,4-c]pyrrole-1,3(2H,5H)-dione] | 59.37 ± 0.05 µM | 76.54 ± 0.06 µM
9 | CCCCn1c(C)c2c(c1C)C(=O)N(CN1CCN(C3CCCCC3)CC1)C2=O [2i, 4,6-dimethyl-5-n-butyl-2-[(4-cyclohexyl-1-piperazinyl)methyl]pyrrolo[3,4-c]pyrrole-1,3(2H,5H)-dione] | 60.96 ± 0.04 µM | 79.87 ± 0.07 µM
10 | CCCCn1c(C)c2c(c1C)C(=O)N(CN1CCN(CCO)CC1)C2=O [2j, 4,6-dimethyl-5-n-butyl-2-{[4-hydroxyethyl-1-piperazinyl]methyl}pyrrolo[3,4-c]pyrrole-1,3(2H,5H)-dione] | 59.77 ± 0.11 µM | 84.90 ± 0.05 µM
11 | Cc1c2c(c(C)n1-c1ccccc1)C(=O)N(CN1CCNCC1)C2=O [2k, 4,6-dimethyl-5-phenyl-2-[(piperazinyl)methyl]pyrrolo[3,4-c]pyrrole-1,3(2H,5H)-dione] | 58.43 ± 0.06 µM | 83.47 ± 0.05 µM
12 | Cc1c2c(c(C)n1-c1ccccc1)C(=O)N(CN1CCOCC1)C2=O [2l, 4,6-dimethyl-5-phenyl-2-[(morpholinyl)methyl]pyrrolo[3,4-c]pyrrole-1,3(2H,5H)-dione] | 59.33 ± 0.09 µM | 82.72 ± 0.04 µM
13 | CCCCn1c(C)c2c(c1C)C(=O)N(CN1CCC(c3ccccc3)CC1)C2=O [2m, 4,6-dimethyl-5-n-butyl-2-[(4-phenyl-1-piperidinyl)methyl]pyrrolo[3,4-c]pyrrole-1,3(2H,5H)-dione] | 60.39 ± 0.02 µM | 88.15 ± 0.02 µM
14 | CCCCn1c(C)c2c(c1C)C(=O)N(CN1CCC(O)(c3ccc(Br)cc3)CC1)C2=O [2n, 4,6-dimethyl-5-n-butyl-2-{[4-(p-bromophenyl)-4-hydroxypiperidin-1-yl]methyl}pyrrolo[3,4-c]pyrrole-1,3(2H,5H)-dione] | 57.65 ± 0.04 µM | 77.59 ± 0.09 µM
15 | CCCCn1c(C)c2c(c1C)C(=O)N(CN1CCC(O)(c3ccc(Cl)cc3)CC1)C2=O [2o, 4,6-dimethyl-5-n-butyl-2-{[4-(p-chlorophenyl)-4-hydroxypiperidin-1-yl]methyl}pyrrolo[3,4-c]pyrrole-1,3(2H,5H)-dione] | 58.38 ± 0.16 µM | 78.25 ± 0.10 µM
16 | CCCCn1c(C)c2c(c1C)C(=O)N(CN1CCC(O)(Cc3ccccc3)CC1)C2=O [2p, 4,6-dimethyl-5-n-butyl-2-{[4-benzyl-4-hydroxypiperidin-1-yl]methyl}pyrrolo[3,4-c]pyrrole-1,3(2H,5H)-dione] | 59.37 ± 0.07 µM | 82.94 ± 0.04 µM

Reference: paper PMC7866801, “Design and Synthesis of N-Substituted 3,4-Pyrroledicarboximides as Potential Anti-Inflammatory Agents” (International Journal of Molecular Sciences, 2021)
